Measurements taken from patent US12637410B2, “Vesicular monoamine transporter-2 ligands and their use in the treatment of psychostimulant abuse” (priority 2016, dated 2026).
pKi: −log10 of the molar value. Where two headings read alike, the source gives them in different places.

Legend:
hERG channel = biological target: T1, hERG channel (Homo sapiens, UniProt Q12809); assay: [3H]Dofetilide binding assay, HEK-293 cell membrane preparation; settings: hERG Binding: Mean Ki (nM)
T1 construct: purchased; host or cells: HEK-293 cells stably expressing hERG (membranes)
T1 sequence (Q12809 whole entry): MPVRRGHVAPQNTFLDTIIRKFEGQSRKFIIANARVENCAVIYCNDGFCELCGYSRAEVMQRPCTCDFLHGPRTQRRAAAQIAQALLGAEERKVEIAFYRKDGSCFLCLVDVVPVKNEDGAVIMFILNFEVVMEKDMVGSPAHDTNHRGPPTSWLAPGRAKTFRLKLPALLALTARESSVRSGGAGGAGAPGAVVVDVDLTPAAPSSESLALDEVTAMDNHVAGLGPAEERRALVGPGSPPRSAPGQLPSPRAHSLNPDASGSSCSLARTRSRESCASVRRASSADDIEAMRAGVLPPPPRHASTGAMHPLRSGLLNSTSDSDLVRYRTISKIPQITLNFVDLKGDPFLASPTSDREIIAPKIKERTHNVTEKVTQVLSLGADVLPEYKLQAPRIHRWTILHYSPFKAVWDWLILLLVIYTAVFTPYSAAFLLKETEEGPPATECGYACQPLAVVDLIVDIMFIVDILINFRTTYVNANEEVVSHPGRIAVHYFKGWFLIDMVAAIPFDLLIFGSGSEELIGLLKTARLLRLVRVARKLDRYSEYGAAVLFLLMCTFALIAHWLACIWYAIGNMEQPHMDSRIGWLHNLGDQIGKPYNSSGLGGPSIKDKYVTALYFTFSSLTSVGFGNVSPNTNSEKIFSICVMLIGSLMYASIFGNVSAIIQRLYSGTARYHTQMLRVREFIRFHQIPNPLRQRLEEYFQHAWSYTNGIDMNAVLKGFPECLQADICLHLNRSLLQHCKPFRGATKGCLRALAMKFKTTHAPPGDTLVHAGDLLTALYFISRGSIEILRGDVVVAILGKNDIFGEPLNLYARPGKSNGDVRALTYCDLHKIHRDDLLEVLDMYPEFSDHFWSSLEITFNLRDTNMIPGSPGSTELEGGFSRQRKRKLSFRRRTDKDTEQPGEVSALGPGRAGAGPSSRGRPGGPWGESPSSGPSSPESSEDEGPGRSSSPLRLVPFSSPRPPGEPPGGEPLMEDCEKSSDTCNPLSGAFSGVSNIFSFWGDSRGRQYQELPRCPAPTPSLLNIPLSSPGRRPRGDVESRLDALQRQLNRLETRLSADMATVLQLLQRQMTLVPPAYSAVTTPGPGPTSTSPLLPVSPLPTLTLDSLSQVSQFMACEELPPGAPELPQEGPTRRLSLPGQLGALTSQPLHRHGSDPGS
Protocol: Membranes were suspended in assay buffer (50 mM Tris, 10 mM KCl, 1 mM MgCl2, pH 7.4) prior to the experiment. […] Nonspecific binding was determined in the presence of amitriptyline (1 mM). Samples were incubated for 1 hr. at 24° C., followed by rapid filtration.

[1] = Microsomal assays, rat liver microsomes; settings: for Microsomal stability assays: Species/Half-life (hr) Rat: rat liver microsomes
Protocol: (§1) Each plate holds triplicate samples of two controls (0.4 mM) and up to 14 compounds (0.08 mM) in rat and human liver microsomes. Aliquots of each well of the plate (175 μl of each well) were transferred from the master plate into 5 assay plates. […] NADPH regenerating system solution A (6.05 ml, Fisher Scientific, #NC9255727) was combined with NADPH regenerating system solution B (1.21 ml, Fisher Scientific, #NC9016235) in potassium phosphate buffer (15.8 ml, 0.1 M, pH 7.4, 37° C.). The resulting NADPH solution (43.8 μl) was added to each well of all the 96-well assay plates and mixed with pipette briefly making the final protein and compound concentrations respectively: 0.5 mg/ml, 0.08 μM (0.4 μM for controls). Plates were sealed, and all plates except the 0-hr plate were incubated at 37° C., shaken at a speed of 60 rpm. A single assay plate was tested at each time point: 0.5 hr, 1 hr, 2 hr, and 4 hr. At each time point, 437.5 μL of pre-cooled internal standard was added each well of the plate to quench the reaction. […] 120 μl supernatant was transferred to a 96-well plate, centrifuged again and analyzed by UPLC-MS (Waters Inc., Milford, MA). The compounds and internal standard were detected by selected ion recording (SIR).
(§2) The amount of material was measured as a ratio of peak area to the internal standard and graphed. Using the slope from the initial linear portion of this curve, the degradation rate constant is calculated using equation [1]. The rate constant was then used to calculate the compounds half-life in plasma using equation [2].

[2] = Pharmacokinetic assays in mice (iv, po, sc); type: in vivo
VMAT2 = biological target: T2, VMAT2 (Rattus norvegicus, UniProt Q01827); assay: [3H]Dopamine ([3H]DA) uptake assay, vesicular preparation; type: biochemical
T2 construct: from tissue; host or cells: rat striatum, isolated synaptic vesicles
T2 sequence (Q01827 whole entry): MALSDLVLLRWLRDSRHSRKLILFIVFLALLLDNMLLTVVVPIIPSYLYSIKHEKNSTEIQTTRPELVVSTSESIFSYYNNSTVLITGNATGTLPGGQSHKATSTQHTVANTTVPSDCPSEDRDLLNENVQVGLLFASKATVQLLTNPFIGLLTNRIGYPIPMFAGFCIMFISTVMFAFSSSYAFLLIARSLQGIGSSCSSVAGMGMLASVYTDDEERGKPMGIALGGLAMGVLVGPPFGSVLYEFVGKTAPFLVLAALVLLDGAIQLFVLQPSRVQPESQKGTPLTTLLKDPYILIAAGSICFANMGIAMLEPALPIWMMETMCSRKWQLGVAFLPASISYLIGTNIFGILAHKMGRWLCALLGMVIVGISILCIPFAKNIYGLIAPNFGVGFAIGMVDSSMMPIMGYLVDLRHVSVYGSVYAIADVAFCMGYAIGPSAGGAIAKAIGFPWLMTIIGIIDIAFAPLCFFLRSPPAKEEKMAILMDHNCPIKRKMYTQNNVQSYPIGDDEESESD

[3] = Microsomal assays, human liver microsomes
Protocol: as §1, §2

[4] = Pharmacokinetic assays in rats (iv, po, sc); settings: for Bioavail. (F %) Frat / bioavailability: rat; for bioavailability: male, Sprague-Dawley, in vivo
Protocol: Animals: Oral and intravenous dose pharmacokinetic studies were conducted in tandem in age matched female Swiss Webster mice and/or age matched male Sprague-Dawley rats purchased from Envigo-Harlan. Animals were housed in IVC cages with wood chip bedding and given food and water ad libitum.
Dose Formulation and Administration Volumes: Hydrochloric acid salts or free base forms were used for formulation.
Pharmacokinetic Studies: Groups of 6 animals were dosed with formulated test compound by bolus lateral tail vein injection (iv), by oral gavage (po), or by subcutaneous injection (sc) into left hind flank. […] Whole blood samples were collected into microtubes and centrifuged at 4000×g for 2 min. Plasma supernatants were collected and immediately frozen on dry ice, then transferred to a −80° C. freezer to await processing for LC-MS/MS analysis. Typical dose rates were 2 mg/kg iv, 10 mg/kg po, and <30 mg/kg sc.
Plasma calibrators (usually 0.25, 0.5, 1, 5, 15, 30, 100, 400, 700, and 1000 ng/mL) were generated by the addition of 5 μL of appropriate spiking solution into 100 μL blank plasma followed by vortex mixing. Plasma QC samples (usually 0.75, 25, 500, and 850 ng/mL) were prepared in a similar manner using an independent 2nd analyte stock solution. Calibrators and QCs were stored alongside experimental samples at −80° C. until analysis.
Analyte and internal standard contained in 5 μL sample injections (15° C. temp.; 1.5 mL 0.1% formic acid in MeOH or 1:1 MeOH: isopropanol injector rinse; 10 sec rinse dip time) were eluted from a guard-protected (2.7 μL, 3×5 mm) Agilent Poroshell 120 EC-C18 (2.7 μL, 3×50 mm; oven temp. 40° C.) analytical column with a 0.1% formic acid in water (mobile Phase-A): 0.1% formic acid in acetonitrile (mobile Phase-B) gradient. […] Positive-mode ESI Turbo V® source and MS gas, temperature, and probe settings were optimized for 0.4 mL flow rate at CUR=35/ISV=4500/TEM=550/GS1=65/GS2=65/CAD=10 with the probe position=7/0.5 horizontal/vertical. […] ISTD voltage potentials were set at DP=70, EP=10, CE=35 and CXP=6. Sample sequences consisted of single randomized experimental sample injections flanked by sets of blanks, calibrators and QCs with QCs interspersed, as needed, to maintain >5% total QC to experimental sample occurrence. High QCs (5,000 and 10,000 ng/mL) were inserted at end of sequence prior to second calibrator injections. Calibration curves were typically constructed by weighted (1/x^2) non-linear regression analysis of analyte/ISTD concentration ratios to analyte/ISTD peak area ratios using AB SciexMultiQuant software (Ver 3.0.31721.0).

[5] = biological target: dopamine transporter (DAT) (Rattus norvegicus, UniProt P23977); assay: [3H]DA uptake assay, synaptosomal preparation
Chain of dopamine transporter (DAT) (P23977 whole entry): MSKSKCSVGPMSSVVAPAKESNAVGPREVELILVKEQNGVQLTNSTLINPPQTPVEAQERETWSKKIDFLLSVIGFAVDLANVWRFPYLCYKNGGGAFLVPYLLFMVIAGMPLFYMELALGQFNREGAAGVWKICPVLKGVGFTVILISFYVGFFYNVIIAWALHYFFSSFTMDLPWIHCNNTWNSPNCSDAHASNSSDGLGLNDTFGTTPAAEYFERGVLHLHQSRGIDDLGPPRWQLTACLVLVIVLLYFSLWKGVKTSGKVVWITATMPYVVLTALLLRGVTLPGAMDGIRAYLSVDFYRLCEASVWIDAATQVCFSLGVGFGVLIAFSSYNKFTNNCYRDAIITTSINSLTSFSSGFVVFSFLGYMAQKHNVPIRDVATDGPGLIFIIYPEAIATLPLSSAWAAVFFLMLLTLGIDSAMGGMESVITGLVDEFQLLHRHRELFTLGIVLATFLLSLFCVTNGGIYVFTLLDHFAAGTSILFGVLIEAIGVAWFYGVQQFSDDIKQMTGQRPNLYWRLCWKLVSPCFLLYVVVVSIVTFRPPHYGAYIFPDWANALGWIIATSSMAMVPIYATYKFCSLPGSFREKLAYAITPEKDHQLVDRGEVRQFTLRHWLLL
Protocol: [^3H]DA and [3H]5-HT uptake into striatal synaptosomes was determined to evaluate compound inhibition of the dopamine transporter (DAT) and the serotonin transporter (SERT), respectively. […] Assays were performed in duplicate in a total volume of 500 μL (for DAT assays) or 250 μL (for SERT assays). Aliquots of the synaptosomal suspension (25 μL for DAT, 50 μL for SERT) were added to tubes containing assay buffer and various concentrations of analog (1 nM-100 μM), and incubated at 34° C. for 5 min. Nonspecific uptake was determined in the presence of nomifensine (10 μM) for DAT assays or fluoxetine (10 μM) for SERT assays. […] Samples were placed on ice, and 50 μL of 0.1 μM [^3H]DA (for DAT assays) or 25 μL of 0.1 μM [^3H]5-HT (for SERT assays) was added to each tube, and incubated for 10 min at 34° C. Reactions were terminated by addition of 3 mL of ice-cold assay buffer and subsequent filtration and radioactivity retained by the filters was determined by liquid scintillation spectrometry (Tri-Carb 2100TR liquid scintillation analyzer; PerkinElmer Life and Analytical Sciences, Boston, MA).

[6] = [3H]dofetilide binding, HEK-293 membranes, mean of n>=3 unless N given
[7] = female, Sprague-Dawley, rat, pH 7.4
[8] = [3H]DA uptake, rat vesicular preparation, mean of n>=3 unless N given, read-out: VMAT2 (rat) Inhibition: Mean Ki
[9] = Table 4, mean, minimally n = 3, read-out: VMAT2 (rat) Inhibition: Mean Ki

SMILES | pKi (VMAT2) | Ki (hERG channel; Table 4, mean, minimally n = 3) | CLint scaled at 0.08 µM [1, 7] | pKi [5] | further results
CC(Cc1ccc(F)cc1)NCCCc1ccc2[nH]ccc2c1 (stereo not shown) [Compound 56] | – | – | – | – | Ki (hERG channel; [6]): 1260 nM; Microsomal stability assays: Species/Half-life (hr) Rat [1]: 0.1 h
CC(Cc1ccc(F)cc1)NCCCc1c[nH]c2ccccc12 (stereo not shown) [Compound 91] | – | – | – | – | Microsomal stability assays: Species/Half-life (hr) Rat [1]: 0.1 h
FCC(Cc1ccccc1)NCCCc1ccccc1 (stereo not shown) [Compound 98] | – | – | – | – | Microsomal stability assays: Species/Half-life (hr) Rat [1]: 0.1 h
CC(Cc1ccc([N+](=O)[O-])cc1)NCCCc1ccc(Br)cc1 (stereo not shown) [Compound 121] | – | – | – | – | Microsomal stability assays: Species/Half-life (hr) Rat [1]: 0.1 h
CC(Cc1ccc(F)cc1)NCCCc1ccccc1 (stereo not shown) [Compound 126] | – | – | – | – | Microsomal stability assays: Species/Half-life (hr) Rat [1]: 0.1 h
CC(C)C(Cc1ccc(F)cc1)NCCCc1ccc(Br)cc1 (stereo not shown) [Compound 140] | – | – | – | – | Microsomal stability assays: Species/Half-life (hr) Rat [1]: 0.1 h
COc1ccc(CCCNC(C)Cc2ccncc2)cc1 (stereo not shown) [Compound 172] | – | – | – | – | Microsomal stability assays: Species/Half-life (hr) Rat [1]: 0.1 h
CC(Cc1ccc(F)cc1)NCCCc1ccncc1 (stereo not shown) [Compound 176] | – | – | – | – | Ki (hERG channel; [6]): 5100 nM; Bioavail. (F %) Fmice [2]: Fmice: ~22% (prelim rat done)
CC(Cc1ccc(F)cc1)NCCCc1ccc(F)cc1 (stereo not shown) [Compound 190] | 8.05 | – | – | – | Bioavail. (F %) Fmice [2]: Fmice: 5%
CC(Cc1ccc(-c2cccnc2)cc1)NCCCc1ccc(F)cc1 (stereo not shown) [Compound 192] | – | – | – | – | Bioavail. (F %) Fmice [2]: Fmice: 6.7%
CC(Cc1ccccc1)NCCCc1ccc(C(F)(F)F)cc1 (stereo not shown) [Compound 194] | – | – | – | – | Bioavail. (F %) Fmice [2]: Fmice: 11.9%
CC(Cc1ccc(-c2cncnc2)cc1)NCCCc1ccc(F)cc1 (stereo not shown) [Compound 196] | 8.10 | – | – | – | Bioavail. (F %) Fmice [2]: Fmice: 3.4% (prelim rat done)
CC(Cc1ccccc1)NCCCc1ccncc1 (stereo not shown) [Compound 204] | – | – | – | – | Bioavail. (F %) Fmice [2]: Fmice: 10% (prelim rat done)
CCC(Cc1ccccc1)NCCCc1ccc(O)cc1 (stereo not shown) [Compound 207] | – | – | – | – | Microsomal stability assays: Species/Half-life (hr) Rat [1]: Rat: 0.1 hr Human: 0.1 hr; Microsomal stability assays: Species/Half-life (hr) Human ([3]; human liver microsomes): Rat: 0.1 hr Human: 0.1 hr
CC(Cc1ccccc1)NCCCc1ccc(S)cc1 (stereo not shown) [Compound 216] | – | – | – | – | Bioavail. (F %) Fmice [2]: Fmice: 0.9%; Microsomal stability assays: Species/Half-life (hr) Rat ([1]; cell prints %): Rat: 0.3%
CC(Cc1ccccc1)NCCCc1ccc(N)cc1 (stereo not shown) [Compound 220] | – | – | – | – | Bioavail. (F %) Fmice [2]: Fmice: quant; Frat: quant; Bioavail. (F %) Frat [4]: Fmice: quant; Frat: quant
CC(Cc1ccccc1)NCCCc1ccc(O)cc1 (stereo not shown) [Compound 223] | – | – | – | – | Bioavail. (F %) Fmice [2]: Fmice: 8.9%
CC(Cc1ccc(F)c(F)c1)NCCCc1ccc2nonc2c1 (stereo not shown) [Compound 227] | 7.31 | – | – | – | Ki (hERG channel; [6]): 650 nM; Bioavail. (F %) ([4]; species not given): No detection
CC(Cc1ccc(F)c(F)c1)NCCCc1ccc2nc[nH]c2c1 (stereo not shown) [Compound 228] | 7.39 | 6770 nM | 48 mL/min/kg | 5.52 | Ki (hERG channel; [6]): 6770 nM; bioavailability ([4]; po, 10 mg/kg): 6%; Bioavail. (F %) Frat [4]: Frat: 5%
CC(Cc1ccc(F)c(F)c1)NCCCc1ccc(C(N)=O)cc1 (stereo not shown) [Compound 231] | – | 3500 nM | 23 mL/min/kg | 5.56 | pKi (VMAT2; [8]): 7.54; Ki (hERG channel; [6]): 3500 nM; bioavailability ([4]; po, 10 mg/kg): 62%; bioavailability ([4]; sc): 84%; Bioavail. (F %) Frat [4]: Frat: 80%
CC(Cc1ccc(F)c(F)c1)NCCCc1ccc2nccnc2c1 (stereo not shown) [Compound 232] | 7.28 | 2590 nM | 159 mL/min/kg | 5.45 | Ki (hERG channel; [6]): 3300 nM

SMILES | pKi (VMAT2) | Ki (hERG channel; Table 4, mean, minimally n = 3) | CLint scaled at 0.08 µM [1, 7] | pKi [5] | further results
CC(Cc1ccc(F)c(F)c1)NCCCc1ccc2[nH]ncc2c1 (stereo not shown) [Compound 234] | 7.27 | 1020 nM | 114 mL/min/kg | 6.15 | Ki (hERG channel; [6]): 1020 nM
CC(Cc1ccc(F)c(F)c1)NCCCc1cccc(C(N)=O)c1 (stereo not shown) [Compound 237] | – | 4780 nM | 30 mL/min/kg | 5.51 | pKi (VMAT2; [8]): 7.49; Ki (hERG channel; [6]): 4780 nM; bioavailability ([4]; po, 10 mg/kg): 2%
CC(Cc1ccccc1)NCCCc1ccc(OC(F)(F)F)cc1 (stereo not shown) [Compound 258] | 7.80 | – | – | – | Ki (hERG channel; [6]): 90 nM; half-life at 0.08 µM ([3]; both, human, pH 7.4): > 240 min
CC(Cc1ccccc1)NCCCc1ccc(S)cc1 (stereo not shown) [Compound 260] | – | – | – | – | Bioavail. (F %) Fmice [2]: Fmice: 0.9%
CC(Cc1ccc(F)c(F)c1)NCCCc1cccc(-c2cccnc2)c1 (stereo not shown) [Compound 283] | 7.39 | – | – | – | Ki (hERG channel; [6]): 182 nM
CC(Cc1ccc(F)c(F)c1)NCCCc1ccc(C(N)=O)c(Cl)c1 (stereo not shown) [Compound 297] | 7.68 | 5020 nM | < 17 mL/min/kg | 5.24 | –
CC(Cc1ccc(F)cc1)NCCCc1ccc(C(N)=O)cc1 (stereo not shown) [Compound 298] | – | 12400 nM | 18 mL/min/kg | 5.40 | pKi (VMAT2; [9]): 7.80
CC(Cc1ccc(F)c(F)c1)NCCCc1ccc(C(N)=O)c(F)c1 (stereo not shown) [Compound 299] | 7.54 | 12100 nM | 19 mL/min/kg | 5.38 | –
CC(Cc1cc(F)cc(F)c1)NCCCc1ccc(C(N)=O)cc1 (stereo not shown) [Compound 300] | – | 8100 nM | 21 mL/min/kg | 5.80 | pKi (VMAT2; [9]): 8.22
CC(Cc1cccc(C(N)=O)c1)NCCCc1ccc(F)cc1 (stereo not shown) [Compound 301] | – | 1310 nM | 22 mL/min/kg | 5.22 | pKi (VMAT2; [9]): 7.37
CC(Cc1ccc(NC(N)=O)cc1)NCCCc1ccc(F)cc1 (stereo not shown) [Compound 302] | 7.47 | 7110 nM | 30 mL/min/kg | 5.50 | –
CC(Cc1ccc2[nH]cnc2c1)NCCCc1ccc(F)cc1 (stereo not shown) [Compound 303] | 7.66 | 2900 nM | 40 mL/min/kg | 5.32 | –
CC(Cc1ccc(C(N)=O)cc1)NCCCc1ccc(F)cc1 (stereo not shown) [Compound 304] | – | 1610 nM | 41 mL/min/kg | 5.25 | pKi (VMAT2; [9]): 7.51
CC(Cc1ccc2nccnc2c1)NCCCc1ccc(S(N)(=O)=O)cc1 (stereo not shown) [Compound 305] | 7.34 | 4390 nM | 43 mL/min/kg | 4.69 | –
CC(Cc1cccc(NC(N)=O)c1)NCCCc1ccc(F)cc1 (stereo not shown) [Compound 306] | 8.05 | 2750 nM | 47 mL/min/kg | 5.53 | –
CC(Cc1ccc2nccnc2c1)NCCCc1ccc(F)cc1 (stereo not shown) [Compound 308] | 7.89 | 1900 nM | 56 mL/min/kg | 5.53 | –
CC(Cc1cccc(F)c1)NCCCc1ccc(C(N)=O)cc1 (stereo not shown) [Compound 309] | – | 12000 nM | 57 mL/min/kg | 5.79 | pKi (VMAT2; [9]): 8.22; bioavailability ([4]; po, 10 mg/kg): 5%; bioavailability ([4]; sc): 76%
CC(Cc1cccc(N)c1)NCCCc1ccc(F)cc1 (stereo not shown) [Compound 310] | 8.30 | 2730 nM | 74 mL/min/kg | 5.65 | –
CC(Cc1ccc(F)c(F)c1)NCCCc1ccc2cnoc2c1 (stereo not shown) [Compound 311] | 7.29 | 4200 nM | 117 mL/min/kg | 5.57 | –
CC(Cc1ccc(F)c(F)c1)NCCCc1ccc2nn[nH]c2c1 (stereo not shown) [Compound 312] | 8.10 | 3000 nM | 115 mL/min/kg | 5.72 | bioavailability ([4]; po, 10 mg/kg): 7%; bioavailability ([4]; sc): 42%
COc1ccc(CCCN[C@@H](C)Cc2ccccc2)cc1 [Compound 313] | 7.14 | 4160 nM | 978 mL/min/kg | – | half-life at 0.08 µM [1, 7]: < 6 min; Bioavail. (F %) Frat ([4]; route not stated): Frat: 3.4%
